Test results: PMC4865847, “Putative histidine kinase inhibitors with antibacterial effect against multi-drug resistant clinical isolates identified by in vitro and in silico screens” (Scientific Reports, 2016)
pIC50: −log10 of the molar value. In brackets after ≈: the same amount, converted by molar mass. Like-named read-outs stand apart in the source and are kept apart here.

What was measured:
[1] = tested on: Stenotrophomonas maltophilia; test: Antibacterial susceptibility testing (MIC), S. maltophilia; format: cell-based; settings: clinical isolate B32/1, read-out: MIC S. maltophilia B32/1
Experimental: (§1) Bacterial strains used in this study for antibacterial susceptibility testing (Table S5) were propagated using standard microbiological procedures. Minimal inhibitory concentrations (MICs) were determined following a standard double-dilution method. MICs were recorded as the lowest concentration of the compound where no visible growth was observed. After plating the dilutions around the MIC or growing them in fresh MH media, minimal bactericidal concentration (MBC) was recorded as the lowest concentration of the compound at which no colonies were formed or no growth was observed, respectively. For S. pneumoniae MICs were determined by adapting the standard double-dilution method to anaerobic conditions and of this microorganism (use of Todd Hewitt Yeast extract with 200 U/mL of catalase and continuous monitoring of growth).

Staphylococcus aureus = test: Antibacterial susceptibility testing (MIC/MBC), S. aureus; format: cell-based; settings: Staphylococcus aureus; for MBC: read-out: MBC S. aureus DSM 20231
Experimental: (§2) Minimal inhibitory concentrations (MICs) were determined following a standard double-dilution method. […] For S. pneumoniae MICs were determined by adapting the standard double-dilution method to anaerobic conditions and of this microorganism (use of Todd Hewitt Yeast extract with 200 U/mL of catalase and continuous monitoring of growth).

Streptococcus pneumoniae = test: Antibacterial susceptibility testing (MIC), S. pneumoniae; format: cell-based; settings: strain 49619
Experimental: as §1

[2] = tested on: Staphylococcus epidermidis; test: Antibacterial susceptibility testing (MIC/MBC), S. epidermidis; format: cell-based; settings: Staphylococcus epidermidis
Experimental: as §2

Pseudomonas aeruginosa = test: Antibacterial susceptibility testing (MIC), P. aeruginosa; format: cell-based; settings: Pseudomonas aeruginosa, ATCC27853; strain ATCC 27853
Experimental: as §1

Acinetobacter baumannii = test: Antibacterial susceptibility testing (MIC), A. baumannii; format: cell-based; settings: MDR clinical isolate NM8, read-out: MIC A. baumannii NM8
Experimental: as §1

E. coli PhoR (PhoR^E) [3] = biological target: T1, E. coli PhoR (PhoR^E) (Escherichia coli, UniProt P08400); test: In vitro autophosphorylation kinase assay with γ-32P-ATP, PhoR^E; format: biochemical; settings: autophosphorylation, one time point (30 sec), 10% DMSO; read-out: IC50 PhoR^E
T1 construct: The catalytic portion (DHp and CA domain) of E. coli PhoR (PhoR^E); made in house; host or cells: E. coli RIL
T1 sequence (P08400 210-425): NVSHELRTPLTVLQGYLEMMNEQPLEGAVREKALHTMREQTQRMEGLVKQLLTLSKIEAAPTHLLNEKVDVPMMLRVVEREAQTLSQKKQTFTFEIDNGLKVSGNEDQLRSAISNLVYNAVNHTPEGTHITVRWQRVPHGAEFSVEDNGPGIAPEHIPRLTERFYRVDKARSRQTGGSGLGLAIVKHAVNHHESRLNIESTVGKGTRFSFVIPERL
How it was run: (§3)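 Autophosphorylation, initiated with γ-32P-ATP (0.1 μCi/μl; 0.03–0.06 μM ATP final), quenched with SDS/EDTA sample buffer, resolved by SDS-PAGE and quantified by phosphor-imaging. ≈4 μM kinase, fragments up to 20 mM, pH 8.5 Tris buffer with Mg2+; DMSO-matched ligand-free controls.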

Hemolysis assay = format: cell-based; settings: human
Experimental: Hemolytic activity against human erythrocytes taken from a healthy donor was measured as previously described. The hemolysis experiments were carried out in accordance with the guidelines of the United Arab Emirates University (UAEU) Research Ethics Review Board. All experimental protocols were approved by the Research Ethics Review Board of UAEU and informed consent was obtained from all donors.

S. pneumoniae WalK = biological target: T2, S. pneumoniae WalK (Streptococcus pneumoniae, UniProt Q8DPL8); test: In vitro autophosphorylation kinase assay with γ-32P-ATP, WalK; format: biochemical; settings: for pIC50: autophosphorylation, one time point (30 sec), 10% DMSO, read-out: IC50 WalK
T2 construct: WalK (amino acids from 208 to 449); N-terminal His6-3C site of vector pOPINF (own knowledge of the vector); made in house; host or cells: E. coli RIL
T2 sequence (Q8DPL8 208-449): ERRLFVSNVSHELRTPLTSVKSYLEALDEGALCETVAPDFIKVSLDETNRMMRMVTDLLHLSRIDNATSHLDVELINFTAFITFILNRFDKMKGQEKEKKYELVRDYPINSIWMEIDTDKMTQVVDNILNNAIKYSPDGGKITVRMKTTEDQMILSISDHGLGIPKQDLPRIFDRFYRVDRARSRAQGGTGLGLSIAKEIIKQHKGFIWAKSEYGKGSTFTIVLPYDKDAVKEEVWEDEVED
How it was run: as §3

Klebsiella pneumoniae = test: Antibacterial susceptibility testing (MIC), K. pneumoniae; format: cell-based; settings: Klebsiella pneumoniae, ATCC700603, strain ATCC 700603
Experimental: as §1

Streptococcus suis = test: Antibacterial susceptibility testing (MIC), S. suis; format: cell-based; settings: Streptococcus suis, read-out: MIC Streptococcus suis 3881/S10, strain 3881/S10
Experimental: as §1

Escherichia coli = test: Antibacterial susceptibility testing (MIC/MBC), E. coli; format: cell-based; settings: Escherichia coli
Experimental: as §2

[4] = tested on: Gram negative E. coli DC2; set-up: method as in PMID 25531939; settings: cited from earlier work
[5] = tested on: Gram-positive B. subtilis; set-up: method as in PMID 25531939; settings: cited from earlier work
S. pneumoniae VicK = tested on: S. pneumoniae VicK; set-up: method as in PMID 25531939; settings: cited from earlier work
[6] = biological target: T3, HK WalK (DHp and CA domain) (Streptococcus pneumoniae, UniProt Q8DPL8); test: Differential scanning fluorimetry (DSF), WalK; format: binding
T3 construct: WalK (amino acids from 208 to 449); N-terminal His6-3C site of vector pOPINF (own knowledge of the vector); made in house; host or cells: E. coli RIL
T3 sequence (Q8DPL8 208-449): as above
Experimental: (§4) To monitor protein unfolding, the fluorescent dye Sypro orange was used[26]. Differential scanning fluorimetry (DSF) experiments were conducted in the iCycleriQ Real Time Detection System (Bio-Rad, Hercules, CA). Solutions of 20 μl of 0.1 mg/ml protein (final concentration), 200 μM fragment cocktails or individual fragments (final concentration), 10X sypro orange (final concentration) and buffer (100 mM TrisCl pH 8, 150 mM NaCl) were added to the wells of the 96-well iCycler iQ PCR plate. The plate was heated from 20 to 85 or 99 °C at a heating rate of 1 °C/min. The fluorescent intensity was measured with Ex/Em: 490/530 nm. Prism GraphPad v.5 was used for curve fitting and statistical analysis.

S. aureus PhoR (PhoR^S) = S. aureus PhoR (PhoR^S) (Staphylococcus aureus, UniProt Q2FXN7); test: Aggregation analysis by native-PAGE, PhoR^S; settings: 2 mM (S5 and S6 5 mM), 10% DMSO
Sequence of S. aureus PhoR (PhoR^S) (Q2FXN7 entry or part of it): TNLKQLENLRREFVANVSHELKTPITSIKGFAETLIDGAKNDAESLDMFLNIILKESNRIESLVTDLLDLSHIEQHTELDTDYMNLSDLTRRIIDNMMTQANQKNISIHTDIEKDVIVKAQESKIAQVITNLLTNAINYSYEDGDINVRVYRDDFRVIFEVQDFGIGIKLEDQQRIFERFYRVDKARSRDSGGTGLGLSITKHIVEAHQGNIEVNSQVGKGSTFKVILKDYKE
Experimental: (§5) E. coli PhoR and EnvZ, and S. aureus PhoR ([…], final concentration) were prepared in kinase buffer. […] DMSO in the assays was maintained to a final concentration 10% (v/v). After 30 min of incubation at room temperature Native polyacrylamide gel electrophoresis (Native-PAGE) loading buffer was added and samples loaded. Coomassie blue staining was used for protein visualization.

HK NblS (CA domain) = test: Differential scanning fluorimetry (DSF), NblS; format: binding, Synechococcus sp. PCC 7942
Experimental: as §4

E. coli EnvZ = biological target: T4, E. coli EnvZ (Escherichia coli, UniProt P0AEJ4); test: Aggregation analysis by native-PAGE, EnvZ; settings: 2 mM, 10% DMSO
T4 construct: The catalytic portion (DHp and CA domain) of E. coli PhoR (PhoR^E), E. coli EnvZ; made in house; host or cells: E. coli RIL
T4 sequence (P0AEJ4 240-440): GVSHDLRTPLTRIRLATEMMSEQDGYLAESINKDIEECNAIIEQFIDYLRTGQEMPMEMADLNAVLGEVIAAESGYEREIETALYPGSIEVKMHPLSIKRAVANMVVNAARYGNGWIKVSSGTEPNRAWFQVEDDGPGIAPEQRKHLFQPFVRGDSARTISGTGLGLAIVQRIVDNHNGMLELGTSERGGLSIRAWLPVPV
Experimental: as §5

E. coli PhoR (PhoR^E) [7] = biological target: T1, E. coli PhoR (PhoR^E); test: Aggregation analysis by native-PAGE, PhoR^E; settings: 2 mM (S5 and S6 5 mM), 10% DMSO
Experimental: as §5

[8] = strain CFT 073, read-out: MIC E. coli CFT 073

## Nc1nc(-c2ccccc2Cl)cs1 [F1.6]
[1]
  MIC: > 500 µg/mL
Staphylococcus aureus; ATCC reference strain 25293, read-out: MIC S. aureus 25293
  MIC: 250 µg/mL (≈ 1190 µM)
Staphylococcus aureus; DSM20231, strain DSM 20231
  MBC: 250 µg/mL (≈ 1190 µM)
Staphylococcus aureus; MRSA clinical isolate 127/08, read-out: MIC S. aureus 127/08
  MIC: 250 µg/mL (≈ 1190 µM)
Staphylococcus aureus; MRSA clinical isolate 145/08, read-out: MIC S. aureus 145/08
  MIC: 250 µg/mL (≈ 1190 µM)
Staphylococcus aureus; MRSA clinical isolate 274/08, read-out: MIC S. aureus 274/08
  MIC: 500 µg/mL (≈ 2370 µM)
Staphylococcus aureus; MRSA, MRSA clinical isolate S908, read-out: MIC S. aureus S908
  MIC: 500 µg/mL (≈ 2370 µM)
Staphylococcus aureus; MRSA, MRSA clinical isolate T4/6, read-out: MIC S. aureus T4/6
  MIC: 250 µg/mL (≈ 1190 µM)
Staphylococcus aureus; MRSA, MRSA clinical isolate V4180, read-out: MIC S. aureus V4180
  MIC: > 500 µg/mL
Staphylococcus aureus; MRSA, summary over strains, read-out: MICs for the MRSA strains and S. aureus 25293
  MIC: 125 to 500 µg/mL (≈ 593 to 2370 µM)
Streptococcus pneumoniae
  MIC: 256 µg/mL (≈ 1220 µM)
[2]; DSM20044, strain DSM 20044
  MBC: 500 µg/mL (≈ 2370 µM)
[2]; clinical isolate T7/3, read-out: MIC S. epidermidis T7/3
  MIC: 125 µg/mL (≈ 593 µM)
[2]; clinical isolate T37/8, read-out: MIC S. epidermidis T37/8
  MIC: > 500 µg/mL
[2]; clinical isolate T6119, read-out: MIC S. epidermidis T6119
  MIC: > 500 µg/mL
[2]; strain RP62A (biofilm producer), read-out: MIC S. epidermidis RP62A
  MIC: > 500 µg/mL
[2]; strain RP62A/1 (non-biofilm producer), read-out: MIC S. epidermidis RP62A/1
  MIC: > 500 µg/mL
[2]; summary over clinical isolates, read-out: MICs for S. epidermidis clinical isolates
  MIC: 125 µg/mL (≈ 593 µM)
Pseudomonas aeruginosa
  MIC: > 500 µg/mL
Acinetobacter baumannii
  MIC: > 500 µg/mL
E. coli PhoR (PhoR^E) [3]
  pIC50: < 2.70
Hemolysis assay
  HC50: > 500 µg/mL
S. pneumoniae WalK; 2 mM, 30 sec, compared to negative control
  inhibition at 2000 µM: > 50%
S. pneumoniae WalK
  pIC50: > 2.70
Klebsiella pneumoniae
  MIC: > 500 µg/mL
Streptococcus suis
  MIC: > 500 µg/mL
Escherichia coli; ATCC25276, strain ATCC 25276, read-out: MIC E. coli ATCC 25276
  MIC: > 500 µg/mL
Escherichia coli; [8]
  MIC: > 500 µg/mL

## Nc1nc2ccc(Oc3ccc4nc(N)sc4c3)cc2s1 [Compound 11]
[4]
  MIC Gram negative: ≥ 32 µg/mL
  MICs for the Gram negative E. coli DC2: 32 to 64 µg/mL
[5]
  MIC Gram positive: ≥ 49 µg/mL
  MICs for the Gram-positive B. subtilis: 49 to 64 µg/mL
S. pneumoniae VicK
  pIC50: 4.12

## Oc1ccc2c(c1)[nH]c1ccccc12 [F2, 2-hydroxy-carbazole]
[6]
  increase of WalK Tm: 3.9 °C
S. aureus PhoR (PhoR^S)
  HK aggregation, PhoR^S: do not cause HK aggregation
Staphylococcus aureus; DSM20231, strain DSM 20231
  MBC: > 500 µg/mL
Staphylococcus aureus; DSM20231, strain DSM 20231, read-out: MIC S. aureus DSM 20231
  MIC: 31 µg/mL (≈ 169 µM)
[2]; DSM20044, strain DSM 20044, read-out: MIC S. epidermidis DSM 20044
  MIC: > 500 µg/mL
E. coli PhoR (PhoR^E) [3]
  pIC50: 3.52
S. pneumoniae WalK
  pIC50: < 2.70
S. pneumoniae WalK; single concentration 5 mM, 30 sec
  inhibitory capacity for WalK autophosphorylation activity: weak inhibitory capacity
Escherichia coli; [8]
  MIC: > 500 µg/mL
HK NblS (CA domain)
  increase of NblS Tm: 2.2 °C
E. coli EnvZ
  HK aggregation, EnvZ: do not cause HK aggregation
E. coli PhoR (PhoR^E) [7]
  HK aggregation, PhoR^E: do not cause HK aggregation
